Tests used:
[1] = biological target: soybean agglutinin (SBA) (Glycine max, UniProt P05046); assay: Carbohydrate microarray on PEO-coated glass slides, fluorescence-tagged lectin binding; details: lectin 10 μg/ml, FIG. 32
[2] = biological target: T1, peanut agglutinin (PNA) (Arachis hypogaea, UniProt P02872); assay: as above; details: lectin 10 μg/ml, FIG. 30
T1 construct: purchased Molecular Probes
T1 sequence (P02872 24-273): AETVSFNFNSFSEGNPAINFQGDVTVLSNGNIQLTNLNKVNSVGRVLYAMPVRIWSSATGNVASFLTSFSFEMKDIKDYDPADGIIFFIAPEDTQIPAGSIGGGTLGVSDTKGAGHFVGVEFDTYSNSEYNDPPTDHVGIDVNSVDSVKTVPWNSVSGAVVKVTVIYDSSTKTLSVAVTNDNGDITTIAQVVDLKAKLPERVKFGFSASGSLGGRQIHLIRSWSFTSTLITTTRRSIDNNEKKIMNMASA

[3] = biological target: Con A (Canavalia ensiformis, UniProt P02866); details: free carbohydrate with Con A, isothermal microcalorimetry, Mandal et al.; cited from earlier work
[4] = biological target: T2, jack bean lectin (Con A) (Canavalia ensiformis, UniProt P02866); assay: Carbohydrate microarray on PEO-coated glass slides, fluorescence-tagged lectin binding; details: lectin 10 μg/ml, FIG. 31
T2 construct: purchased Molecular Probes

Chain of soybean agglutinin (SBA) (P05046 33-285): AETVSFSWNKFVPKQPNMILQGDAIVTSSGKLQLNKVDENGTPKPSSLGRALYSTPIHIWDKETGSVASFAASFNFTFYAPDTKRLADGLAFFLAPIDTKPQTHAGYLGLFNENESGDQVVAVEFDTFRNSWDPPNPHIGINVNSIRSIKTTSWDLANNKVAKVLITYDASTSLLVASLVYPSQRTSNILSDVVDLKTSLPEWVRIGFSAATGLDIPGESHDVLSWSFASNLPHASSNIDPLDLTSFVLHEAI

| Compound | PNA binding pattern on microarray (fluorescence) [2] | Con A binding pattern on microarray (fluorescence) [4] | further results |
| --- | --- | --- | --- |
| [N-]=[N+]=Nc1c(F)c(F)c(C(=O)NCCOCCOCCO[C@@H]2OC(CO)[C@@H](O[C@@H]3OC(CO)[C@H](O)C(O)C3O)C(O)C2O)c(F)c1F (stereo partly drawn) [lactose] | primary ligand | – | SBA binding pattern on microarray (fluorescence) [1]: showed binding |
| OC[C@H]1O[C@H](O[C@H]2[C@H](O)[C@@H](CO)OC(O)[C@H]2O)[C@@H](O)[C@@H](O)[C@@H]1O (stereo partly drawn) [α-1,3-mannobiose] | – | – | Ka [3]: 142000 M⁻¹ |
| [N-]=[N+]=Nc1c(F)c(F)c(C(=O)NCCOCCOCCO[C@H]2OC(CO)[C@@H](O)C(O)C2O)c(F)c1F (stereo partly drawn) [α-D-mannoside structures] | – | specificity of Con A for binding | – |
| [N-]=[N+]=Nc1c(F)c(F)c(C(=O)NCCOCCOCCO[C@@H]2OC(CO)[C@@H](O)C(O)C2O)c(F)c1F (stereo partly drawn) [β-D-glucoside] | – | low binding | – |
| cellobiose | lesser amounts of binding | – | – |

Reference: patent US8679859B2, “Method for functionalizing materials and devices comprising such materials” (State of Oregon by and through the State Board of Higher …, priority 2007, dated 2014)
